Source: patent US5354843A, “Flanking peptides of calcitonin and processes for their manufacture” (Ciba-Geigy Corporation, priority 1988, dated 1994)

Assay: isoelectric point
Type: physicochemical
Description: FAB-MS: MH^+ 6220 (calculated molecular weight: 6220), isoelectric point: 4.2 (calculated: 4.04).

isoelectric point: 4.2
Substance: human procalcitonin amino-terminal flanking peptide [PCATFP]
